# In US20210198277A1, “AMINE-SUBSTITUTED ARYL OR HETEROARYL COMPOUNDS” (Epizyme, Inc., priority 2016, published 2021):
# Biological target: T1, EHMT1 (Homo sapiens, UniProt Q9H9B1)
# T1 sequence (Q9H9B1 1-1298): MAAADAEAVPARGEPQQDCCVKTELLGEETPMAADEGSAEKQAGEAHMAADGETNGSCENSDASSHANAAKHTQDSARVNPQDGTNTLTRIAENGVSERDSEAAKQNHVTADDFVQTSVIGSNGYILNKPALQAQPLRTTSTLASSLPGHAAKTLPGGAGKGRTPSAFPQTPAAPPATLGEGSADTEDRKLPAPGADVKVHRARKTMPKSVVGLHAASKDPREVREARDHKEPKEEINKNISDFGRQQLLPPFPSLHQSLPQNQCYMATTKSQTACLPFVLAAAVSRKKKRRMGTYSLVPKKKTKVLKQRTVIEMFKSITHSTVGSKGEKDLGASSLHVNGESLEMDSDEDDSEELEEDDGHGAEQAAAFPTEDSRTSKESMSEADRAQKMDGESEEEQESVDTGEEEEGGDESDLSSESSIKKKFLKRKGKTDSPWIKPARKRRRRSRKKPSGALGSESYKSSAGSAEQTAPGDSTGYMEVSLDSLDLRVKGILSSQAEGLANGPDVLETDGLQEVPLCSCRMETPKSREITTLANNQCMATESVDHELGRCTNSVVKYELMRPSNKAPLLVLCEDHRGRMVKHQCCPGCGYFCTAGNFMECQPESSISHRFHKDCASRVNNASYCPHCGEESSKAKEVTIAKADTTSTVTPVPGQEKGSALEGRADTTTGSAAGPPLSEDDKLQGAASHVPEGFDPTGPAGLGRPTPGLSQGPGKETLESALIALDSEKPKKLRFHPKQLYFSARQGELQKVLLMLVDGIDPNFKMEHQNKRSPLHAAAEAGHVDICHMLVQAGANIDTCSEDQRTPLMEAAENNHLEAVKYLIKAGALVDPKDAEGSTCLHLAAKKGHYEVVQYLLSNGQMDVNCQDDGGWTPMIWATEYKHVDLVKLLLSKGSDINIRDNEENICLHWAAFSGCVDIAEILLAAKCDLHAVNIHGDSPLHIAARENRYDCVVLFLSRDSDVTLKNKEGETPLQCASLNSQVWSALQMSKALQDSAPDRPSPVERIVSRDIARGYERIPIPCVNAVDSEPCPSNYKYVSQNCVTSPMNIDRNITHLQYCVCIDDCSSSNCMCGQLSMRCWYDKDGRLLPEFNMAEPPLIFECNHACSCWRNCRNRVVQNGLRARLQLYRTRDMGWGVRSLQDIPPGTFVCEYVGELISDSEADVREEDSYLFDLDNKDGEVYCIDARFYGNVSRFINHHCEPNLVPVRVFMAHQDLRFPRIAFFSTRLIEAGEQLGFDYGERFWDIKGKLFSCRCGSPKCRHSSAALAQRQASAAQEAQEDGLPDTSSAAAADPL
# Assay: EHMT1 enzyme assay on peptide substrate (EHMT1 PEP)
# Assay type: biochemical
# Settings: Table II; read-out: EHMT1 PEP (IC50 μM)
row,Structure (SMILES),IC50 [µM]
1,COc1ccc(OCCCN2CCCC2)cc1Nc1nccc(NCC2CCOCC2)n1 [Compound 227],> 10
2,COc1ccc(NCCCN2CCCC2)cc1Nc1nccc(NCC2CCOCC2)n1 [Compound 228],> 10
3,CNc1ccnc(Nc2ccc(OC)c(OCCCN3CC[C@@H](F)C3)c2)n1 [Compound 229],0.1 to 1
4,CNc1ccnc(Nc2ccc(OC)c(OCCCN3CC(F)C3)c2)n1 [Compound 230],1 to 10
5,CNc1nccc(Nc2ccc(OC)c(OCCCN3CCCC3)c2)n1 [Compound 231],0.1 to 1
6,CNc1cc(C)nc(Nc2ccc(F)c(OCCCN3CCCC3)c2)n1 [Compound 232],> 10
7,CNc1nc(Nc2ccc(OC)c(OCCCN3CCCC3)c2)ncc1C#N [Compound 233],> 10
8,CNc1nc(Nc2ccc(OC)c(OCCCN3CCCC3)c2)ncc1C(F)(F)F [Compound 234],> 10
9,CNc1ncc(C(F)(F)F)c(Nc2ccc(OC)c(OCCCN3CCCC3)c2)n1 [Compound 235],> 10
10,CNc1nc(Nc2ccc(OC)c(OCCCN3CCCC3)c2)nc(C)c1F [Compound 236],0.1 to 1
11,CNc1ccnc(Nc2ccc(OC)c(OCCN3CCOCC3)c2)n1 [Compound 237],1 to 10
12,CNc1ccnc(Nc2ccc3c(c2)N(C(=O)CCN(C)C)CC3)n1 [Compound 239],> 10
13,CCc1cc(NC)nc(Nc2ccc(OC)c(OCCCN3CCCC3)c2)n1 [Compound 240],< 0.1
14,COc1ccc(Nc2nccc(CNC3CCOCC3)n2)cc1OCCCNc1ccccc1 [Compound 241],> 10
15,COc1ccc(Nc2cnnc(NCC3CCN(C(C)=O)CC3)c2)cc1OCCCN1CCCC1 [Compound 242],1 to 10
16,COc1ccc(Nc2nccc(NCC3CCOCC3)n2)cc1OC1CC2(C1)CN(C)C2 [Compound 243],> 10
17,CNc1ccnc(Nc2ccc(F)c(OCCCN3CCCC3)c2)n1 [Compound 244],> 10

# Other lines, results leading:
row,IC50 [µM],Structure (SMILES)
1,0.1 to 1,COc1ccc(Nc2nccc(N)n2)cc1OCCCN1CCCC1 [Compound 245]
2,0.1 to 1,CNc1cnnc(Nc2ccc(OC)c(OCCCN3CCCC3)c2)c1 [Compound 246]
3,1 to 10,CNc1cncc(Nc2ccc(OC)c(OCCCN3CCCC3)c2)n1 [Compound 247]
4,< 0.1,CNc1cc(Nc2cc(OCCCN3CCCC3)c(OC)cn2)ccn1 [Compound 248]
5,> 10,COc1ccc(Nc2nccc3[nH]ncc23)cc1OCCCN1CCCC1 [Compound 249]
6,1 to 10,COc1ccc(Nc2ccnc3[nH]ccc23)cc1OCCCN1CCCC1 [Compound 250]
7,> 10,CC(C)Nc1ccnc(Nc2cccc(OCCCN3CC[C@@H](F)C3)c2)n1 [Compound 251]
8,1 to 10,CNc1ccnc(Nc2cccc(OC[C@H](O)CN3CCCC3)c2)n1 [Compound 252]
9,> 10,CNc1ccnc(Nc2cccc(OC[C@@H](O)CN3CCCC3)c2)n1 [Compound 253]
